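96-well plates; 48 h exposure; 5 concentrations. Endpoints by linear interpolation between flanking doses. Not reached: highest tested concentration assigned. GI50 = concentration required for 50% inhibition of growth.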 Active and inactive are the calls of the source. Rule as the data show it: active = GI50 up to about 1.1 µM and inactive = higher.
Assays:
Assay in all cases: NCI-60 cell line screen, 48 h
IGROV-1 = system: IGROV-1
OVCAR-8 = system: OVCAR-8
HOP-92 = system: HOP-92
COLO 205 = system: COLO 205
786-0 = system: 786-0
CAKI-1 = system: CAKI-1
NCI-H226 = system: NCI-H226
EKVX = system: EKVX
SNB-19 = system: SNB-19
NCI-H460 = system: NCI-H460
TK-10 = system: TK-10
HOP-62 = system: HOP-62
A498 = system: A498
OVCAR-5 = system: OVCAR-5
RXF 393 = system: RXF 393
HCT-15 = system: HCT-15
SN12C = system: SN12C
MOLT-4 = system: MOLT-4
CCRF-CEM = system: CCRF-CEM

Row | Structure (SMILES) | GI50 (IGROV-1) | GI50 (OVCAR-8) | GI50 (HOP-92) | GI50 (COLO 205) | GI50 (786-0) | GI50 (CAKI-1) | GI50 (NCI-H226) | GI50 (EKVX) | GI50 (SNB-19) | GI50 (NCI-H460) | GI50 (TK-10) | GI50 (HOP-62) | GI50 (A498) | GI50 (OVCAR-5) | GI50 (RXF 393) | GI50 (HCT-15) | GI50 (SN12C) | GI50 (MOLT-4) | GI50 (CCRF-CEM)
1 | C=C(Cl)CN1c2ccccc2C=Cc2ccccc21 | 16.1 µM (inactive) | 14.8 µM (inactive) | 22.3 µM (inactive) | 12.8 µM (inactive) | 14.2 µM (inactive) | 10 µM (inactive) | 27.5 µM (inactive) | 19.1 µM (inactive) | 22.5 µM (inactive) | 3.61 µM (inactive) | 48.3 µM (inactive) | 16.6 µM (inactive) | 34.7 µM (inactive) | 19.9 µM (inactive) | 13 µM (inactive) | > 100 µM | 20.6 µM (inactive) |  | 
2 | CCOC(=O)C1=C(C)C2C3C(=O)OC(=O)C3C1(C)C1C(=O)OC(=O)C21 (stereo not given) | > 100 µM (inactive) | > 100 µM (inactive) | > 100 µM (inactive) | > 100 µM (inactive) | > 100 µM (inactive) |  | > 100 µM (inactive) | > 100 µM (inactive) | > 100 µM (inactive) | > 100 µM (inactive) | > 100 µM (inactive) | > 100 µM (inactive) | > 100 µM (inactive) |  | > 100 µM (inactive) | > 100 µM | > 100 µM (inactive) | > 100 µM (inactive) | > 100 µM (inactive)
3 | O=C(Nc1ccc(Cl)cc1Cl)C1C(=O)C(=O)N(c2ccc(Cl)cc2Cl)C1=O (stereo not given) | > 100 µM (inactive) | > 100 µM (inactive) |  |  | > 100 µM (inactive) | > 100 µM (inactive) | 34.1 µM (inactive) | > 100 µM (inactive) | > 100 µM (inactive) | > 100 µM (inactive) | > 100 µM (inactive) | > 100 µM (inactive) | > 100 µM (inactive) | > 100 µM (inactive) | 37.8 µM (inactive) | > 100 µM | > 100 µM (inactive) |  | 
4 | COc1cc(OC)c2ssc3c(OC)cc(OC)c4ssc1c2-c43 | > 100 µM (inactive) | > 100 µM (inactive) |  | > 100 µM (inactive) | > 100 µM (inactive) | > 100 µM (inactive) | > 100 µM (inactive) | > 100 µM (inactive) | > 100 µM (inactive) | > 100 µM (inactive) | > 100 µM (inactive) | > 100 µM (inactive) | > 100 µM (inactive) | > 100 µM (inactive) | > 100 µM (inactive) | > 100 µM | > 100 µM (inactive) | > 100 µM (inactive) | > 100 µM (inactive)
5 | NC1=CN(Cc2ccccc2)C2=N/C(=C\c3ccccc3)C(=O)N12 | > 100 µM (inactive) | > 100 µM (inactive) | > 100 µM (inactive) | > 100 µM (inactive) | > 100 µM (inactive) | > 100 µM (inactive) | > 100 µM (inactive) | > 100 µM (inactive) | > 100 µM (inactive) | > 100 µM (inactive) | > 100 µM (inactive) | > 100 µM (inactive) | > 100 µM (inactive) | > 100 µM (inactive) | > 100 µM (inactive) | > 100 µM | > 100 µM (inactive) | 97.3 µM (inactive) | 50 µM (inactive)
6 | CC(C)NC(=O)OCCN=C1c2ccccc2C(Br)C(Br)c2ccccc21 (stereo not given) | 2.66 µM (inactive) | 8 µM (inactive) | 5.3 µM (inactive) | 5.13 µM (inactive) | 4.14 µM (inactive) | 7.01 µM (inactive) | 15.6 µM (inactive) | 9.06 µM (inactive) | 16.1 µM (inactive) | 10.4 µM (inactive) | 5.87 µM (inactive) | 14.5 µM (inactive) | 1.62 µM (inactive) | 12 µM (inactive) | 2.87 µM (inactive) | 9.75 µM | 12.6 µM (inactive) | 6.19 µM (inactive) | 0.46 µM (active)
7 | C/C(=N/c1[nH]c(=O)cc2c1C(=O)CC2)N(C)C | > 200 µM (inactive) | > 200 µM (inactive) | > 200 µM (inactive) | > 200 µM (inactive) | > 200 µM (inactive) | > 200 µM (inactive) | > 200 µM (inactive) | > 200 µM (inactive) | > 200 µM (inactive) | > 200 µM (inactive) | > 200 µM (inactive) | > 200 µM (inactive) | > 200 µM (inactive) | > 200 µM (inactive) | > 200 µM (inactive) | > 200 µM | > 200 µM (inactive) | > 200 µM (inactive) | > 200 µM (inactive)
8 | CC1C2(C)OCC(C#N)(C(=N)O2)C1(C#N)C#N (stereo not given) | 33 µM (inactive) | 23.9 µM (inactive) | 21.9 µM (inactive) | 14.7 µM (inactive) | 21.3 µM (inactive) | 12.5 µM (inactive) | 67 µM (inactive) | 19.1 µM (inactive) | 43.5 µM (inactive) | 18.5 µM (inactive) | 37.1 µM (inactive) |  | 88.7 µM (inactive) | 29.1 µM (inactive) | 27.4 µM (inactive) | 13.5 µM | 15.7 µM (inactive) | 27.3 µM (inactive) | 22.8 µM (inactive)
9 | CCOP(=O)(Nc1ccc(-c2ccccc2)cc1)OCC | 71.3 µM (inactive) | > 100 µM (inactive) | 24.8 µM (inactive) | > 100 µM (inactive) | > 100 µM (inactive) | > 100 µM (inactive) |  | 65 µM (inactive) | > 100 µM (inactive) | > 100 µM (inactive) | > 100 µM (inactive) | > 100 µM (inactive) | > 100 µM (inactive) | 77.8 µM (inactive) | 34.6 µM (inactive) | > 100 µM |  | 36.4 µM (inactive) | 
10 | CC(=O)OC1COC(n2nc(N)nc2C)C(OC(C)=O)C1OC(C)=O (stereo not given) | > 100 µM (inactive) | > 100 µM (inactive) | > 100 µM (inactive) | > 100 µM (inactive) | > 100 µM (inactive) | > 100 µM (inactive) | > 100 µM (inactive) | > 100 µM (inactive) | > 100 µM (inactive) | > 100 µM (inactive) | > 100 µM (inactive) | > 100 µM (inactive) | > 100 µM (inactive) | > 100 µM (inactive) | > 100 µM (inactive) | > 100 µM | > 100 µM (inactive) | > 100 µM (inactive) | > 100 µM (inactive)
11 | Cc1ccc(NC(=O)/C(Cc2nc3ccc([N+](=O)[O-])cc3nc2O)=N\NC(=O)C[n+]2ccccc2)c(C)c1 | 35.4 µM (inactive) | 30.3 µM (inactive) | 37.5 µM (inactive) | 43.5 µM (inactive) | 27.9 µM (inactive) | 34.7 µM (inactive) | 74.6 µM (inactive) | 26.7 µM (inactive) | 83.4 µM (inactive) | 26.8 µM (inactive) | 21.2 µM (inactive) | 38.9 µM (inactive) |  | > 100 µM (inactive) | 4.06 µM (inactive) | 49.4 µM | 32.1 µM (inactive) | 30.7 µM (inactive) | 26.6 µM (inactive)
12 | Cc1ccc(S(=O)(=O)N2CCSCCSCCSCCN(S(=O)(=O)c3ccc(C)cc3)CC2)cc1 | > 100 µM (inactive) | > 100 µM (inactive) | > 100 µM (inactive) | > 100 µM (inactive) | > 100 µM (inactive) |  | > 100 µM (inactive) | > 100 µM (inactive) | > 100 µM (inactive) | > 100 µM (inactive) | > 100 µM (inactive) | > 100 µM (inactive) | > 100 µM (inactive) | > 100 µM (inactive) | > 100 µM (inactive) |  | > 100 µM (inactive) | > 100 µM (inactive) | 
13 | COC(=O)C(=O)CC(=O)c1cccc(OC)c1 | < 0.01 µM (active) | > 100 µM (inactive) |  | > 100 µM (inactive) | > 100 µM (inactive) | > 100 µM (inactive) | > 100 µM (inactive) | > 100 µM (inactive) | > 100 µM (inactive) | > 100 µM (inactive) | 78.3 µM (inactive) | > 100 µM (inactive) | > 100 µM (inactive) | > 100 µM (inactive) | > 100 µM (inactive) | > 100 µM | > 100 µM (inactive) | > 100 µM (inactive) | > 100 µM (inactive)
14 | Cc1cc2c(cc1C)[n+]([O-])c(C(=O)/C=C/c1ccccc1Cl)c(C)[n+]2[O-] | 20.1 µM (inactive) | 26.1 µM (inactive) |  | 20.7 µM (inactive) | 16 µM (inactive) | 21.1 µM (inactive) | > 100 µM (inactive) | 49.2 µM (inactive) | 43.2 µM (inactive) | 26.2 µM (inactive) | 25.4 µM (inactive) | 24.6 µM (inactive) | 36.6 µM (inactive) | 34.4 µM (inactive) |  | 22.5 µM | 33 µM (inactive) | 39.5 µM (inactive) | 37.2 µM (inactive)
15 | COc1cc(CNc2ccc(C(C)C)cc2)cc(OC)c1OC | 31 µM (inactive) | 28 µM (inactive) | 20.3 µM (inactive) |  | 15.4 µM (inactive) |  |  | 51.8 µM (inactive) | 29.6 µM (inactive) | 13.4 µM (inactive) | 47.4 µM (inactive) | 23.9 µM (inactive) | 30.4 µM (inactive) | 24.8 µM (inactive) | 0.693 µM (active) | 16.9 µM | 17.4 µM (inactive) | 22.4 µM (inactive) | 19 µM (inactive)
16 | O=C(Nc1ccc(Cl)cc1Cl)C1C(=O)N(c2ccc(Cl)cc2Cl)C(=O)/C1=N\Nc1ccc([N+](=O)[O-])cc1[N+](=O)[O-] (stereo not given) | 83 µM (inactive) | 60.8 µM (inactive) | 23.3 µM (inactive) | 52.5 µM (inactive) | 67.8 µM (inactive) | 54.5 µM (inactive) | 39.6 µM (inactive) | > 100 µM (inactive) | 39.1 µM (inactive) | 59.8 µM (inactive) | > 100 µM (inactive) | 45.8 µM (inactive) | 47.5 µM (inactive) | 44.5 µM (inactive) |  | 9.82 µM | 74.6 µM (inactive) | 22 µM (inactive) | 23.1 µM (inactive)

Source: ChEMBL document CHEMBL1201862, “PubChem BioAssay data set” (2004)
